Patent US8987217B2, “Modified saponins for the treatment of fungal infections” (The General Hospital Corporation, priority 2010, dated 2015)
Values after ≈ are worked out from the molar mass of the structure shown.

Assays:
sheep erythrocytes = assay: hemolysis of sheep erythrocytes; format: cell-based; conditions: 100 μg/mL
Description: The cytotoxicity for the identified compounds was confirmed as previously described (Breger et al., PLoS Pathog, 3:e18 (2007); Moy et al., Proc Natl Acad Sci USA, 103:10414-10419 (2006)). Hemolysis of sheep erythrocytes (Rockland Immunochemicals) was monitored on a spectrophotometer at A540 with the two natural products A16 and A19 (100 μg/mL) in 2% DMSO. Triton X-100 and DMSO were used as controls.

[1] = tested on: C. albicans strain DAY185; assay: in vitro antifungal activity (MIC) in the co-inoculation assay, turbidity read visually; format: cell-based
Description: (§1) The procedure for the co-inoculation antifungal compound screen were conducted as previously described (Okoli et al., PLoS ONE, 4:e7025 (2009); Tampakakis et al., Nat Protocols, 3:1925-1931 (2008)), using the C. albicans strain DAY185 (Davis et al., Infect Immun, 68:5953-5959 (2000)) and the C. elegans glp-4;sek-1 double mutant.
The determination of the lowest concentration of the selected compounds showing in vitro antifungal activity was accomplished by following the steps detailed in the co-inoculation assay, using two-fold serial dilutions of the test compounds.

C. albicans strains = assay: MIC by standard CLSI microdilution protocol M27-A; format: cell-based
Description: Using the standard Clinical and Laboratory Standards Institute (CLSI) procedure, the in vitro MIC of these two compounds was determined on the following C. albicans strains: DAY185 (the standard strain used throughout the screen), two fluconazole-resistant strains of C. albicans, and an echinocandin-resistant strain of C. albicans (Table 2).
(§2) The minimal inhibitory concentration (MIC) was determined for strains DAY185, 98-145, 95-120 (White et al., Antimicrob Agents Chemother, 46:1704-1713 (2002)), and A15-10 (Garcia-Effron et al., Antimicrob Agents Chemother, 53:112-122 (2009)) spectrophotometrically using RPMI 1640 media (Mediatech, Inc.) following the standard CLSI microdilution protocol M27-A (National Committee for Clinical Laboratory Standards, Reference method for broth dilution susceptibility testing of yeasts. Tentative standard M27-A, Villanova, Pa. (1995)). Biofilm assays using identified compounds were conducted as previously described (Richard et al., Eukaryot Cell, 4:1493-1502 (2005)). The biofilm dry mass was determined by drying the silicone squares in a chemical hood, and weighing the resulting biofilm mass subtracting the previously weighed mass of the silicone square. Biofilm pictures were captured using a confocal laser microscope (TCS NT, Leica Microsystems). Cells were grown at 30° C., exposed to PS for 30 min, and then washed with PBS.

C. elegans = assay: toxicity to the nematode in dose response experiments; conditions: dose response experiments, higher concentrations
Description: (§3) This assay allows simultaneous assessment of a compound's potential toxicity and the ability to promote the survival of the nematode in the presence of C. albicans, including modes of action not traditionally considered in antifungal assays such as impeding a fungal virulence factor or promoting host immune response. We performed a screen of 2,560 natural products representing a fraction of the Analyiticon Discovery compound collection (ac-discovery.com) housed at the Broad Institute of Harvard and MIT (Cambridge, Mass.). […] These natural products identified in the primary screen were retested and confirmed (FIG. 1; Table 1). […] Moreover, although the antifungal effects of some of these saponins have been reported (Sata et al., Biosci Biotechnol Biochem, 62:1904-1911 (1998); Ohtani et al., Phytochem, 33:83-86 (1993)), their efficacy against Candida spp. has not been studied.
Representatives of the saponins family are able to disrupt cellular membranes and the lytic activity on erythrocytes has been used as an assay for some saponins Francis et al., British Journal of Nutrition, 88:587-605 (2002)). This property is derived from the affinity of some saponins for binding cholesterol forming insoluble pores composed of the sterol and saponins (Bangham et al., Nature, 196:952-953(1962); Glauert et al., Nature, 196:953-955 (1962)). […] The dose-response experiments previously used to determine the EC50 and approximate the MIC can also indicate if the saponins maybe toxic to C. elegans and potentially to mammalian cells.

C. albicans biofilm = assay: biofilm formation on silicone pads (dry mass); format: cell-based; conditions: 20 μg/mL (below the MIC), compared with caspofungin
Description: as §2, with “Biofilm pictures were captured using a confocal laser microscope (TCS NT, Leica Microsystems). Cells were grown at 30° C., exposed to PS for 30 min, and then washed with PBS.” left out
Caspofungin (Merck) served as a known antifungal compound control. In vitro hyphal inhibition was assessed by incubation of DAY185 in RPMI 1640 media at 37° C. […] The ability of the antifungal compound A16, at either 2 or 4 μg/mL, to induce osmotic stress was assessed using DAY185 grown in a 96 well microtiter plate containing RPMI 1640 media and NaCl, ranging in concentrations from 0-2 M in 0.25 M increments. The growth of the fungus was measured spectrophotometrically after 48 hours of growth at 35° C.

C. albicans = assay: C. elegans-C. albicans co-inoculation assay, nematode survival; format: in vivo
Description: as §1, §3
After confirmation of these hits, dose response experiments were conducted to determine the concentration that provided maximum nematode survival. The compounds conferred a range of nematode survival from 27% (compound A6) to 93% (compounds A2, A7, A24, and A25), however, with the exception of A6, all compounds conferred a nematode survival over 65% (FIG. 1).

**Q.** For `C/C=C(/C)C(=O)O[C@H]1CC(C)(C)C[C@H]2C3=CCC4[C@@]5(C)CC[C@H](O[C@@H]6O[C@H](C(=O)O)[C@@H](O[C@@H]7O[C@H](CO)[C@H](O)[C@H](O)[C@H]7O[C@@H]7O[C@H](CO)[C@@H](O)[C@H](O)[C@H]7O)[C@H](O)[C@H]6OC6O[C@@H](C)[C@H](O)[C@@H](O)[C@H]6O)C(C)(C)C5CC[C@@]4(C)[C@]3(C)C[C@@H](O)[C@@]12CO` (some centres unmarked) [A19], which hemolytic activity (sheep erythrocytes) is on record?
**A.** no hemolytic activity

**Q.** What about the MIC in vitro ([1]; co-inoculation assay, two-fold serial dilutions, C. albicans DAY185) of the same compound?
**A.** 26.5 µg/mL (≈ 22 µM)

**Q.** What about the “in vitro growth of C. albicans” value ([1]; screen / dose response) of the same compound?
**A.** completely inhibited

**Q.** What about the MIC (C. albicans strains; C. albicans DAY185) of the same compound?
**A.** 32 µg/mL (≈ 26.6 µM)

**Q.** And the MIC (C. albicans strains; echinocandin-resistant strain A15)?
**A.** 16 µg/mL (≈ 13.3 µM)

**Q.** And the MIC (C. albicans strains; fluconazole-resistant strain 95-120)?
**A.** 32 µg/mL (≈ 26.6 µM)

**Q.** And the MIC (C. albicans strains; fluconazole-resistant strain 98-145)?
**A.** 32 µg/mL (≈ 26.6 µM)

**Q.** What about the “toxicity to the nematode” value (C. elegans) of the same compound?
**A.** none of the concentrations used in the dose response experiment showed signs of toxicity

**Q.** And the biofilm formation (C. albicans biofilm)?
**A.** able to inhibit biofilm formation

**Q.** What about the maximum nematode survival (C. albicans; dose response, C. albicans-infected C. elegans) of the same compound?
**A.** 80%

**Q.** And the EC50 in vivo (C. albicans; dose that resulted in 50% survival of C. albicans-infected nematodes)?
**A.** 26.5 µg/mL (≈ 22 µM)
